Experimental data published in patent US10414763B2 (CANCER RESEARCH TECHNOLOGY LIMITED, priority 2014, dated 2019).

target: T1, full-length human PKCι (Homo sapiens, UniProt P41743); experiment: PKCι IC50 IMAP fluorescence polarisation assay, full-length enzyme, 150 μM ATP; format: biochemical; conditions: read-out: IC50 in IMAP assay against full length PKCi at 150 μM ATP
T1 construct: Recombinant, full-length human PKCι expressed in Sf21 insect cells is also commercially available; purchased EMD Millipore; host or cells: Sf21 insect cells (baculovirus)
T1 sequence (P41743 1-596): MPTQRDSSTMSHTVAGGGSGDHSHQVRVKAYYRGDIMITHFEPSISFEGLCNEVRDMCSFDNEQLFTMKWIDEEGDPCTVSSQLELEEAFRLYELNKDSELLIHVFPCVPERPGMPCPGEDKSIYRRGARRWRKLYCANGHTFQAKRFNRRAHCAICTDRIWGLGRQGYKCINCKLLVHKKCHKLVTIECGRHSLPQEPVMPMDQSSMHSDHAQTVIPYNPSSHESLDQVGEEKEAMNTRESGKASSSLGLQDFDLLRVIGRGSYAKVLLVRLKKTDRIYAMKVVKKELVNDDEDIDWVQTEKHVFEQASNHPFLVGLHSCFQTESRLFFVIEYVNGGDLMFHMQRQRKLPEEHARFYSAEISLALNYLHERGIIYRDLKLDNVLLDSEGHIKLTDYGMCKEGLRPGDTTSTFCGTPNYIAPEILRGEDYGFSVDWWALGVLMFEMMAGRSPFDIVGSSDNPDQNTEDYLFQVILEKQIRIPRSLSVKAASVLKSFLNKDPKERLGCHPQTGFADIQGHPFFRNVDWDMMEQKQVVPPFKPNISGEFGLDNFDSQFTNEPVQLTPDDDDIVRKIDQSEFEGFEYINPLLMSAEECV
In short: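 IMAP fluorescence polarisation kinase assay: 15 pM baculovirus-expressed human PKCiota with 100 nM FAM-pseudosubstrate peptide and 150 μM ATP, 1 h at 25 °C. IMAP detection reagent then 2 h at 25 °C before FP measurement. Inhibition referenced to no-compound and no-enzyme controls for IC50 fitting.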

Row | Structure (SMILES) | IC50 [µM]
1 | Fc1ccc(F)c(Nc2cc(-c3nc(N4CCOC5CNCC54)c4c(C5CC5)cncc4n3)ccn2)n1 (centres unmarked) [Example 203, {4-[5-Cyclopropyl-4-(hexahydro-pyrrolo[3,4-b][1,4]oxazin-4-yl)-pyrido[3,4-d]pyrimidin-2-yl]-pyridin-2-yl}-(3,6-difluoro-pyridin-2-yl)-amine] | 0.1 to 1
2 | O[C@H]1CNCC[C@H]1Nc1nc(-c2ccnc3[nH]c4ccccc4c23)nc2cncc(C(F)(F)F)c12 (racemic) [Example 349, rac-(3S,4R)-4-[2-(9H-Pyrido[2,3-b]indol-4-yl)-5-trifluoromethyl-pyrido[3,4-d]pyrimidin-4-ylamino]-piperidin-3-ol] | 0.1 to 1
3 | C[C@H]1CNCC[C@H]1Nc1nc(-c2ccnc3[nH]c4ccccc4c23)nc2cncc(C(F)(F)F)c12 (racemic) [Example 351, rac-(3S,4R)-3-Methyl-piperidin-4-yl)-[2-(9H-pyrido[2,3-b]indol-4-yl)-5-trifluoromethyl-pyrido[3,4-d]pyrimidin-4-yl]-amine] | 0.1 to 1
4 | c1ccn2nc(Nc3cc(-c4nc(N5CCC6NCCCC65)c5c(C6CC6)cncc5n4)ccn3)nc2c1 (centres unmarked) [Example 244, {4-[5-Cyclopropyl-4-(octahydro-pyrrolo[3,2-b]pyridin-1-yl)-pyrido[3,4-d]pyrimidin-2-yl]-pyridin-2-yl}-[1,2,4]triazolo[1,5-a]pyridin-2-yl-amine] | < 0.1
5 | O[C@H]1CNCC[C@H]1Nc1nc(-c2ccnc3[nH]c4ccccc4c23)nc2cncc(C3CCC3)c12 (racemic) [Example 344, rac-(3S,4R)-4-[5-Cyclobutyl-2-(9H-pyrido[2,3-b]indol-4-yl)-pyrido[3,4-d]pyrimidin-4-ylamino]-piperidin-3-ol] | < 0.1
6 | C[C@@H]1CNCC[C@@H]1Nc1nc(-c2ccnc(Nc3ncccc3F)c2)nc2cncc(C3CC3)c12 (racemic) [Example 299, {5-Cyclopropyl-2-[2-(3-fluoro-pyridin-2-ylamino)-pyridin-4-yl]-pyrido[3,4-d]pyrimidin-4-yl}-(rac-(3R,4S)-3-methyl-piperidin-4-yl)-amine] | 0.1 to 1
7 | Fc1ccc(F)c(Nc2cc(-c3nc(N[C@H]4[C@@H]5CNC[C@@H]54)c4c(C5CCC5)cncc4n3)ccn2)n1 [Example 109, (1S,6S)-3-Aza-bicyclo[3.1.0]hex-6-yl-{(R)-5-cyclobutyl-2-[2-(3,6-difluoro-pyridin-2-ylamino)-pyridin-4-yl]-pyrido[3,4-d]pyrimidin-4-yl}-amine] | < 0.1
8 | C[C@@H]1CNCC[C@H]1Nc1nc(-c2ccnc(Nc3nc4ccccn4n3)c2)nc2cncc(C3CCC3)c12 (racemic) [Example 277, {5-Cyclobutyl-2-[2-([1,2,4]triazolo[1,5-a]pyridin-2-ylamino)-pyridin-4-yl]-pyrido[3,4-d]pyrimidin-4-yl}-(rac-(3R,4R)-3-methyl-piperidin-4-yl)-amine] | < 0.1
9 | Fc1ccc(Cl)c(-c2cc3c(-c4nc(N5CCOC6CNCC65)c5c(C6CC6)cncc5n4)ccnc3[nH]2)c1 (centres unmarked) [Example 360, 2-[2-(2-Chloro-5-fluoro-phenyl)-1H-pyrrolo[2,3-b]pyridin-4-yl]-5-cyclopropyl-4-(hexahydro-pyrrolo[3,4-b][1,4]oxazin-4-yl)-pyrido[3,4-d]pyrimidine] | < 0.1
10 | N[C@@H]1CN(c2nc(-c3ccnc4[nH]c5ccccc5c34)nc3cncc(C4CCC4)c23)C[C@H]1O (racemic) [Example 343, rac-(3R,4R)-4-Amino-1-[5-cyclobutyl-2-(9H-pyrido[2,3-b]indol-4-yl)-pyrido[3,4-d]pyrimidin-4-yl]-pyrrolidin-3-ol] | 0.1 to 1
11 | Cn1c(Nc2cc(-c3nc(N[C@H]4CCNCC4(C)C)c4c(C5CCC5)cncc4n3)ccn2)nc2ccccc21 [Example 281] | < 0.1
12 | Fc1cccnc1-c1cc2c(-c3nc(N4CC[C@H]5NCC[C@H]54)c4c(C5CCC5)cncc4n3)ccnc2[nH]1 (racemic) [Example 57, (±)-5-Cyclobutyl-2-[2-(3-fluoro-pyridin-2-yl)-1H-pyrrolo[2,3-b]pyridin-4-yl]-4-(3,6- cis)-hexahydro-pyrrolo[3,2-b]pyrrol-1-yl-pyrido[3,4-d]pyrimidine] | < 0.1

The remaining lines, values ahead:

Row | IC50 [µM] | Structure (SMILES)
13 | < 0.1 | Fc1cccc(F)c1Nc1cc(-c2nc(N3CCOC4CNCC43)c3c(C4CCC4)cncc3n2)ccn1 (centres unmarked) [Example 258, {4-[5-Cyclobutyl-4-(hexahydro-pyrrolo[3,4-b]-1,4-oxazin-4-yl)-pyrido[3,4-d]pyrimidin-2-yl]-pyridin-2-yl}-(2,6-difluoro-phenyl)-amine]
14 | < 0.1 | C[C@H]1CNCC[C@H]1Nc1nc(-c2ccnc3[nH]c4ccccc4c23)nc2cncc(C3CCC3)c12 (racemic) [Example 347, [5-Cyclobutyl-2-(9H-pyrido[2,3-b]indol-4-yl)-pyrido[3,4-d]pyrimidin-4-yl]-(rac-(3S,4R)-3-methyl-piperidin-4-yl)-amine]
15 | < 0.1 | FC(F)(F)c1cc2c(-c3nc(N4CC[C@@H]5CNC[C@@H]54)c4c(C5CC5)cncc4n3)ccnc2[nH]1 [Example 21, 5-Cyclopropyl-4-(3aR,6aR)-hexahydro-pyrrolo[3,4-b]pyrrol-1-yl-2-(2-trifluoromethyl-1H-pyrrolo[2,3-b]pyridin-4-yl)-pyrido[3,4-d]pyrimidine]
16 | < 0.1 | NC[C@H]1CCN(c2nc(-c3ccnc4[nH]c5ccccc5c34)nc3cncc(C4CCC4)c23)C1 [Example 249, C-{(R)-1-[5-Cyclobutyl-2-(9H-pyrido[2,3-b]indol-4-yl)-pyrido[3,4-d]pyrimidin-4-yl]-pyrrolidin-3-yl}-methylamine]
17 | < 0.1 | C[C@@H]1CNCC[C@H]1Nc1nc(-c2ccnc(Nc3nc(F)ccc3F)c2)nc2cncc(C3CCC3)c12 (single isomer, unassigned) [Example 279, {5-Cyclobutyl-2-[2-(3,6-difluoro-pyridin-2-ylamino)-pyridin-4-yl]-pyrido[3,4-d]pyrimidin-4-yl}-((3R,4R)-3-methyl-piperidin-4-yl)-amine or enantiomer]
18 | < 0.1 | Fc1ccc(F)c(Nc2cc(-c3nc(N4CCC5NCCCC54)c4c(C5CCC5)cncc4n3)ccn2)n1 (centres unmarked) [Example 124, {4-[5-Cyclobutyl-4-(octahydro-pyrrolo[3,2-b]pyridin-1-yl)-pyrido[3,4-d]pyrimidin-2-yl]-pyridin-2-yl}-(3,6-difluoro-pyridin-2-yl)-amine]
19 | < 0.1 | Cc1nc(Nc2cc(-c3nc(N[C@@H]4CCNC[C@H]4O)c4c(C5CCC5)cncc4n3)ccn2)ccc1C#N (racemic) [Example 314, 6-{4-[5-Cyclobutyl-4-(rac-(3R,4R)-3-hydroxy-piperidin-4-ylamino)-pyrido[3,4-d]pyrimidin-2-yl]-pyridin-2-ylamino}-2-methyl-nicotinonitrile]
20 | < 0.1 | CN(C)CC#Cc1cc2c(-c3nc(N4CCNCC4)c4c(C5CCC5)cncc4n3)ccnc2[nH]1 [Example 55, {3-[4-(5-Cyclobutyl-4-piperazin-1-yl-pyrido[3,4-d]pyrimidin-2-yl)-1H-pyrrolo[2,3-b]pyridin-2-yl]-prop-2-ynyl}-dimethyl-amine]
21 | < 0.1 | c1ccc2c(c1)[nH]c1nccc(-c3nc(N4CCC5NCCC54)c4c(C5CCC5)cncc4n3)c12 (centres unmarked) [Example 59, 4-[5-Cyclobutyl-4-(hexahydro-pyrrolo[3,2-b]pyrrol-1-yl)-pyrido[3,4-d]pyrimidin-2-yl]-9H-pyrido[2,3-b]indole]
22 | < 0.1 | Fc1cc(F)c(Nc2cc(-c3nc(NC4CCCNCC4)c4c(C5CCC5)cncc4n3)ccn2)nc1F (centres unmarked) [Example 159, Azepan-4-yl-{5-cyclobutyl-2-[2-(3,5,6-trifluoro-pyridin-2-ylamino)-pyridin-4-yl]-pyrido[3,4-d]pyrimidin-4-yl}-amine]
23 | < 0.1 | COc1cccc(Nc2cc(-c3nc(N[C@H]4CCNCC4(C)C)c4c(C5CCC5)cncc4n3)ccn2)n1 [Example 383, {5-Cyclobutyl-2-[2-(6-methoxy-pyridin-2-ylamino)-pyridin-4-yl]-pyrido[3,4-d]pyrimidin-4-yl}-((S)-3,3-dimcthyl-piperidin-4-yl)-amine]
24 | < 0.1 | C[C@@H]1CNCC[C@H]1Nc1nc(-c2ccnc(Nc3ncccc3F)c2)nc2cncc(C3CCC3)c12 (racemic) [Example 289, {5-Cyclobutyl-2-[2-(3-fluoro-pyridin-2-ylamino)-pyridin-4-yl]-pyrido[3,4-d]pyrimidin-4-yl}-(rac-(3R,4R)-3-methyl-piperidin-4-yl)-amine]
25 | < 0.1 | CC1(C)CNCCC1Nc1nc(-c2ccnc(Nc3ncccc3F)c2)nc2cncc(C3CC3)c12 (centres unmarked) [Example 49, {5-Cyclopropyl-2-[2-(3-fluoro-pyridin-2-ylamino)-pyridin-4-yl]-pyrido[3,4-d]pyrimidin-4-yl}-(3,3-dimethyl-piperidin-4-yl)-amine]
26 | < 0.1 | CC1(C)CNCC[C@@H]1Nc1nc(-c2ccnc(Nc3ccc4ccccc4n3)c2)nc2cncc(C3CC3)c12 [Example 378, {5-Cyclopropyl-2-[2-(quinolin-2-ylamino)-pyridin-4-yl]-pyrido[3,4-d]pyrimidin-4-yl}-((S)-3,3-dimethyl-piperidin-4-yl)-amine]
